The target of one experiment is T1, human orexin-1 receptor (Homo sapiens, UniProt O43613).
T1 construct: expressed in transfected cells; host or cells: CHO cells (G418 selection)
T1 sequence (O43613 1-425): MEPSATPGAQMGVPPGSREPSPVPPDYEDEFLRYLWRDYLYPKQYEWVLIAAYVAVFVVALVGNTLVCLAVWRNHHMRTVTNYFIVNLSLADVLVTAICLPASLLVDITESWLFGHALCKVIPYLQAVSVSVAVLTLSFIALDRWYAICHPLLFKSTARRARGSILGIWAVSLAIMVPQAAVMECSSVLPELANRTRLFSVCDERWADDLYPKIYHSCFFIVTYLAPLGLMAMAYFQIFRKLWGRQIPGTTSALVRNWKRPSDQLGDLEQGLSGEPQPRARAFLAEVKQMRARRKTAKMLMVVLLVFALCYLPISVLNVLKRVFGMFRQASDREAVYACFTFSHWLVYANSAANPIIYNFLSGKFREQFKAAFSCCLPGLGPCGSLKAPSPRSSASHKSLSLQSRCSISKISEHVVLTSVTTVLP
As to the kind of experiment: FLIPR intracellular calcium assay, orexin receptor antagonistic activity (OX1). The class given is cell-based. The note with it: CHO cells expressing human orexin-1 receptor; agonist 3 nM orexin-A; normalized to on-plate reference; * geomean n = 5, *2 geomean n = 2. The method, boiled down: (§1)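 CHO cells expressing human OX1 or OX2 receptor loaded with fluo-4 AM, then antagonist preincubated 10 min before 3 nM orexin-A. FLIPR peak calcium fluorescence compared with agonist-plus-vehicle response. IC50 normalized to an on-plate reference compound.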
(Calcium flux is commonly read through the fluorescence of an indicator in the cells.)

Another experiment deals with T2, human orexin-2 receptor (Homo sapiens, UniProt O43614).
T2 construct: expressed in transfected cells; host or cells: CHO cells (G418 selection)
T2 sequence (O43614 1-444): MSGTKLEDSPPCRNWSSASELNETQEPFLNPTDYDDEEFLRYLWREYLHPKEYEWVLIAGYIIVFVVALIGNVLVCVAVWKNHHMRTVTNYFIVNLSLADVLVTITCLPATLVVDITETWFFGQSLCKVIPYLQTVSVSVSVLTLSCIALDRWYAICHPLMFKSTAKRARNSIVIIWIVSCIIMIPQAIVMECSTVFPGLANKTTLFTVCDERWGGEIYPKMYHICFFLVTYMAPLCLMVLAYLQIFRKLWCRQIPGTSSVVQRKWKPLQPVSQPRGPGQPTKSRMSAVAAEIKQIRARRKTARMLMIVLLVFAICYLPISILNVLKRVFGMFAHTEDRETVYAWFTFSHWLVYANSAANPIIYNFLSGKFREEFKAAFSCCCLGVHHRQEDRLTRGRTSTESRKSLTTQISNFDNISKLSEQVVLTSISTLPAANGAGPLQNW
As to the kind of experiment: FLIPR intracellular calcium assay, orexin receptor antagonistic activity (OX2). Format: cell-based. The following applies: CHO cells expressing human orexin-2 receptor; agonist 3 nM orexin-A; normalized to on-plate reference; * geomean n = 5, *2 geomean n = 2. Summed up:
as §1

The structures appear in SMILES notation.

`COc1cccc(OC)c1C1OC(C)(C)C(=O)N1Cc1ccc(OC(F)(F)F)c(F)c1` (centres unmarked) [Example 67, 2-(2,6-Dimethoxy-phenyl)-3-(3-fluoro-4-trifluoromethoxy-benzyl)-5,5-dimethyl-oxazolidin-4-one]: the IC50 at human orexin-1 receptor was determined as 25 nM; on human orexin-2 receptor, 322 nM.

With `COc1cccc(OC)c1C1OC(C)(C)C(=O)N1Cc1nc2ccccc2o1` (centres unmarked) [Example 68, 3-Benzooxazol-2-ylmethyl-2-(2,6-dimethoxy-phenyl)-5,5-dimethyl-oxazolidin-4-one], the IC50 on human orexin-1 receptor worked out at 2940 nM; at human orexin-2 receptor, 508 nM.

Consider `COc1cccc(OC)c1C1OC(C)(C)C(=O)N1Cc1ccc(OC(F)F)cc1` (centres unmarked) [Example 69, 3-(4-Difluoromethoxy-benzyl)-2-(2,6-dimethoxy-phenyl)-5,5-dimethyl-oxazolidin-4-one], for which the IC50 was 187 nM on human orexin-1 receptor and 928 nM at human orexin-2 receptor.

With `COc1cccc(OC)c1C1OC(C)(C)C(=O)N1Cc1nc2ccccc2n1C` (centres unmarked) [Example 70, 2-(2,6-Dimethoxy-phenyl)-5,5-dimethyl-3-(1-methyl-1H-benzoimidazol-2-ylmethyl)-oxazolidin-4-one], the values for the IC50 on human orexin-1 receptor and at human orexin-2 receptor were 65 nM and 1300 nM, respectively.

For `COc1cccc(OC)c1C1OC(C)(C)C(=O)N1Cc1ccc2c(c1)OCO2` (centres unmarked) [Example 71, 3-Benzo[1,3]dioxol-5-ylmethyl-2-(2,6-dimethoxy-phenyl)-5,5-dimethyl-oxazolidin-4-one], the results for the IC50 at human orexin-1 receptor and on human orexin-2 receptor were 150 nM and 1660 nM, respectively.

`COc1ccc(CN2C(=O)C(C)(C)OC2c2c(OC)cccc2OC)cc1` (centres unmarked) [Example 72, 2-(2,6-Dimethoxy-phenyl)-3-(4-methoxy-benzyl)-5,5-dimethyl-oxazolidin-4-one]: the values for the IC50 at human orexin-1 receptor and on human orexin-2 receptor were 188 nM and 2270 nM, respectively.

As for `CCCOc1ccc(CN2C(=O)[C@@H](C)OC2c2c(OC)cccc2OC)cc1` (stereo partly drawn) [Example 73, 2-(2,6-Dimethoxy-phenyl)-(R)-5-methyl-3-(4-propoxy-benzyl)-oxazolidin-4-one], the IC50 came out at 581 nM at human orexin-1 receptor and 86 nM on human orexin-2 receptor.

As for `COc1cccc(OC)c1C1O[C@H](C)C(=O)N1Cc1ccc(OC(C)C)cc1` (stereo partly drawn) [Example 74, 2-(2,6-Dimethoxy-phenyl)-3-(4-isopropoxy-benzyl)-(R)-5-methyl-oxazolidin-4-one], the IC50 at human orexin-1 receptor turned out to be 1210 nM; on human orexin-2 receptor, 95 nM.

For the molecule `COc1cccc(OC)c1C1O[C@H](C)C(=O)N1Cc1ccc(OCC2CC2)cc1` (stereo partly drawn) [Example 75, 3-(4-Cyclopropylmethoxy-benzyl)-2-(2,6-dimethoxy-phenyl)-(R)-5-methyl-oxazolidin-4-one], the IC50 at human orexin-1 receptor is 1760 nM; on human orexin-2 receptor, 123 nM.

On to `COc1cccc(OC)c1C1OC(C)(C)C(=O)N1Cc1ccc(OC(C)C)cc1` (centres unmarked) [Example 76, 2-(2,6-Dimethoxy-phenyl)-3-(4-isopropoxy-benzyl)-5,5-dimethyl-oxazolidin-4-one], for which the IC50 on human orexin-1 receptor was 114 nM; on human orexin-2 receptor, 193 nM.

Consider `CCCOc1ccc(CN2C(=O)C(C)(C)OC2c2c(OC)cccc2OC)cc1` (centres unmarked) [Example 77, 2-(2,6-Dimethoxy-phenyl)-5,5-dimethyl-3-(4-propoxy-benzyl)-oxazolidin-4-one], for which the IC50 at human orexin-1 receptor was 114 nM; at human orexin-2 receptor, 484 nM.

Turning to `COc1cccc(OC)c1C1OC(C)(C)C(=O)N1Cc1ccc(OCC2CC2)cc1` (centres unmarked) [Example 78, 3-(4-Cyclopropylmethoxy-benzyl)-2-(2,6-dimethoxy-phenyl)-5,5-dimethyl-oxazolidin-4-one], the 50% inhibitory concentration (IC50) turned out to be 472 nM at human orexin-1 receptor and 620 nM at human orexin-2 receptor.

As for `CCOc1ccc(CN2C(=O)[C@@H](C)O[C@@H]2c2c(OC)cccc2OC)cc1` [Example 79, 2-(2,6-Dimethoxy-phenyl)-3-(4-ethoxy-benzyl)-(r)-5-methyl-oxazolidin-4-one], the values for the IC50 on human orexin-1 receptor and at human orexin-2 receptor were 830 nM and 864 nM, respectively.

As for `CCOc1ccc(CN2C(=O)C(C)(C)OC2c2c(OC)cccc2OC)cc1` (centres unmarked) [Example 80, 2-(2,6-Dimethoxy-phenyl)-3-(4-ethoxy-benzyl)-5,5-dimethyl-oxazolidin-4-one], the values for the IC50 on human orexin-1 receptor and at human orexin-2 receptor were 139 nM and 1940 nM, respectively.

Consider `Cc1cccc(C)c1C1OC(C)(C)C(=O)N1Cc1ccc(OC(F)(F)F)c(Cl)c1` (centres unmarked) [Example 81, 3-(3-Chloro-4-trifluoromethoxy-benzyl)-2-(2,6-dimethyl-phenyl)-5,5-dimethyl-oxazolidin-4-one], for which the IC50 at human orexin-1 receptor amounted to 920 nM; at human orexin-2 receptor it was 88 nM.

Take `CC1(C)OC(c2c(F)cccc2F)N(Cc2ccc(OC(F)(F)F)c(Cl)c2)C1=O` (centres unmarked) [Example 82, 3-(3-Chloro-4-trifluoromethoxy-benzyl)-2-(2,6-difluoro-phenyl)-5,5-dimethyl-oxazolidin-4-one]: the IC50 on human orexin-1 receptor worked out at 336 nM; on human orexin-2 receptor it was 110 nM.

`COc1cccc(C)c1C1OC(C)(C)C(=O)N1Cc1ccc(OC(F)(F)F)c(Cl)c1` (centres unmarked) [Example 83, 3-(3-Chloro-4-trifluoromethoxy-benzyl)-2-(2-methoxy-6-methyl-phenyl)-5,5-dimethyl-oxazolidin-4-one]: the figures for the IC50 on human orexin-1 receptor and at human orexin-2 receptor were 133 nM and 69 nM, respectively.

On to `COc1cccc(F)c1C1OC(C)(C)C(=O)N1Cc1ccc(Oc2ccccc2)cc1` (centres unmarked) [Example 84, 2-(2-Fluoro-6-methoxy-phenyl)-5,5-dimethyl-3-(4-phenoxy-benzyl)-oxazolidin-4-one], for which the IC50 on human orexin-1 receptor turned out to be 421 nM; on human orexin-2 receptor it was 46 nM.

Consider `COc1cccc(Cl)c1C1OC(C)(C)C(=O)N1Cc1ccc(Oc2ccccc2)cc1` (centres unmarked) [Example 85, 2-(2-Chloro-6-methoxy-phenyl)-5,5-dimethyl-3-(4-phenoxy-benzyl)-oxazolidin-4-one], for which the values for the IC50 at human orexin-1 receptor and on human orexin-2 receptor were 204 nM and 37 nM, respectively.

Take `COc1cccc(C(F)(F)F)c1C1OC(C)(C)C(=O)N1Cc1ccc(Oc2ccccc2)cc1` (centres unmarked) [Example 86, 2-(2-Methoxy-6-trifluoromethyl-phenyl)-5,5-dimethyl-3-(4-phenoxy-benzyl)-oxazolidin-4-one]: the figures for the IC50 on human orexin-1 receptor and on human orexin-2 receptor were 2180 nM and 65 nM, respectively.

Take `COc1cccc(OC)c1C1OC(C)(C)C(=O)N1Cc1ccc(-c2ccccc2)cc1` (centres unmarked) [Example 87, 3-Biphenyl-4-ylmethyl-2-(2,6-dimethoxy-phenyl)-5,5-dimethyl-oxazolidin-4-one]: the IC50 on human orexin-1 receptor was determined as 64 nM; at human orexin-2 receptor, 1090 nM.

As to `COc1cccc(OC)c1C1OC(C)(C)C(=O)N1Cc1ccc(SC(F)(F)F)cc1` (centres unmarked) [Example 88, 2-(2,6-Dimethoxy-phenyl)-5,5-dimethyl-3-(4-trifluoromethylsulfanyl-benzyl)-oxazolidin-4-one], the IC50 amounted to 120 nM on human orexin-1 receptor and 298 nM on human orexin-2 receptor.

On to `COc1cccc(OC)c1C1OC(C)(C)C(=O)N1Cc1ccc(Oc2ccccc2)nc1` (centres unmarked) [Example 89, 2-(2,6-Dimethoxy-phenyl)-5,5-dimethyl-3-(6-phenoxy-pyridin-3-ylmethyl)-oxazolidin-4-one], for which the values for the IC50 at human orexin-1 receptor and at human orexin-2 receptor were 139 nM and 212 nM, respectively.

On to `COc1cccc(OC)c1C1OC(C)(C)C(=O)N1Cc1ccc(Oc2ccccc2)cn1` (centres unmarked) [Example 90, 2-(2,6-Dimethoxy-phenyl)-5,5-dimethyl-3-(5-phenoxy-pyridin-2-ylmethyl)-oxazolidin-4-one], for which the IC50 was determined as 413 nM at human orexin-1 receptor and 236 nM on human orexin-2 receptor.

Consider `COc1cccc(OC)c1C1OC(C)(C)C(=O)N1Cc1ccc(Oc2ccccn2)cc1` (centres unmarked) [Example 91, 2-(2,6-Dimethoxy-phenyl)-5,5-dimethyl-3-[4-(pyridin-2-yloxy)-benzyl]-oxazolidin-4-one], for which the IC50 is 110 nM on human orexin-1 receptor and 443 nM at human orexin-2 receptor.

Take `COc1cccc(OC)c1C1OC(C)(C)C(=O)N1Cc1ccc(Oc2cnccn2)cc1` (centres unmarked) [Example 92, 2-(2,6-Dimethoxy-phenyl)-5,5-dimethyl-3-[4-(pyrazin-2-yloxy)-benzyl]-oxazolidin-4-one]: the IC50 at human orexin-1 receptor was 1210 nM; at human orexin-2 receptor, 3060 nM.

As for `COc1cccc(OC)c1C1OC(C)(C)C(=O)N1Cc1ccc(Oc2ccc(C)nn2)cc1` (centres unmarked) [Example 93, 2-(2,6-Dimethoxy-phenyl)-5,5-dimethyl-3-[4-(6-methyl-pyridazin-3-yloxy)-benzyl]-oxazolidin-4-one], the IC50 at human orexin-1 receptor came to 1200 nM; on human orexin-2 receptor, 8330 nM.

On to `COc1cccc(OC)c1C1OC(C)(C)C(=O)N1Cc1ccc(Oc2ncccn2)cc1` (centres unmarked) [Example 95, 2-(2,6-Dimethoxy-phenyl)-5,5-dimethyl-3-[4-(pyrimidin-2-yloxy)-benzyl]-oxazolidin-4-one], for which the figures for the IC50 at human orexin-1 receptor and at human orexin-2 receptor were 2990 nM and 7260 nM, respectively.

One may read the IC50 as the midpoint of a concentration-inhibition curve.

For the origin of these results see patent US8329706B2, “Oxazolidinone derivatives” (Actelion Pharmaceuticals Ltd., priority 2009, dated 2012).
